How the values were obtained:
Assay in all cases: relative viability (nuclei count vs DMSO), 5 days (fraction); higher = more cells survive
Bosutinib + Navitoclax = compound: COc1cc(Nc2c(C#N)cnc3cc(OCCCN4CCN(C)CC4)c(OC)cc23)c(Cl)cc1Cl [Bosutinib] + CC1(C)CCC(c2ccc(Cl)cc2)=C(CN2CCN(c3ccc(C(=O)NS(=O)(=O)c4ccc(N[C@H](CCN5CCOCC5)CSc5ccccc5)c(S(=O)(=O)C(F)(F)F)c4)cc3)CC2)C1 [Navitoclax] (partner 0.5 µM)
Summary of the method: (§1)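 Lung cancer cell lines were pin-tool dosed in 1536-well plates on the day after seeding, with either a lone drug or a fixed anchor-drug dose plus five library-drug doses (not always all listed) in √10 steps. Nuclei were counted on 4× images after 5 days. Relative viability is the ratio of treated-well to vehicle-well nuclei counts, with each value a median of duplicate plates.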

Bosutinib + Decitabine = compound: COc1cc(Nc2c(C#N)cnc3cc(OCCCN4CCN(C)CC4)c(OC)cc23)c(Cl)cc1Cl [Bosutinib] + Nc1ncn([C@H]2C[C@H](O)[C@@H](CO)O2)c(=O)n1 [Decitabine] (partner 2 µM)
Summary of the method: as §1

Bosutinib + Luminespib = compound: COc1cc(Nc2c(C#N)cnc3cc(OCCCN4CCN(C)CC4)c(OC)cc23)c(Cl)cc1Cl [Bosutinib] + CCNC(=O)c1noc(-c2cc(C(C)C)c(O)cc2O)c1-c1ccc(CN2CCOCC2)cc1 [Luminespib] (partner 0.01 µM)
Summary of the method: as §1

Bosutinib + AZD7762 = compound: COc1cc(Nc2c(C#N)cnc3cc(OCCCN4CCN(C)CC4)c(OC)cc23)c(Cl)cc1Cl [Bosutinib] + NC(=O)Nc1cc(-c2cccc(F)c2)sc1C(=O)N[C@H]1CCCNC1 [AZD7762] (partner 0.2 µM)
Summary of the method: as §1

Bosutinib + Trametinib = compound: COc1cc(Nc2c(C#N)cnc3cc(OCCCN4CCN(C)CC4)c(OC)cc23)c(Cl)cc1Cl [Bosutinib] + CC(=O)Nc1cccc(-n2c(=O)n(C3CC3)c(=O)c3c(Nc4ccc(I)cc4F)n(C)c(=O)c(C)c32)c1 [Trametinib] (partner 0.02 µM)
Summary of the method: as §1

| Cell Line | relative viability (Bosutinib + Navitoclax; first compound 0.01 µM) | relative viability (Bosutinib + Navitoclax; first compound 0.03162 µM) | relative viability (Bosutinib + Navitoclax; first compound 0.1 µM) | relative viability (Bosutinib + Navitoclax; first compound 1 µM) | relative viability (Bosutinib + Decitabine; first compound 0.01 µM) | relative viability (Bosutinib + Decitabine; first compound 0.03162 µM) | relative viability (Bosutinib + Decitabine; first compound 0.1 µM) | relative viability (Bosutinib + Decitabine; first compound 1 µM) | relative viability (Bosutinib + Luminespib; first compound 0.01 µM) | relative viability (Bosutinib + Luminespib; first compound 0.03162 µM) | relative viability (Bosutinib + Luminespib; first compound 0.1 µM) | relative viability (Bosutinib + Luminespib; first compound 1 µM) | relative viability (Bosutinib + AZD7762; first compound 0.03162 µM) | relative viability (Bosutinib + AZD7762; first compound 0.1 µM) | relative viability (Bosutinib + AZD7762; first compound 1 µM) | relative viability (Bosutinib + Trametinib; first compound 0.01 µM) | relative viability (Bosutinib + Trametinib; first compound 0.03162 µM) | relative viability (Bosutinib + Trametinib; first compound 0.1 µM) | relative viability (Bosutinib + Trametinib; first compound 1 µM) | relative viability (Bosutinib + AZD7762; first compound 0.01 µM) |
| --- | --- | --- | --- | --- | --- | --- | --- | --- | --- | --- | --- | --- | --- | --- | --- | --- | --- | --- | --- | --- |
| A549 | 1.2 | 1.26 | 1.27 | 1.07 | 0.279 | 0.226 | 0.237 | 0.261 | – | – | – | – | – | – | – | – | – | – | – | – |
| ABC-1 | – | – | – | – | 1.21 | 1.22 | 0.997 | 0.807 | 0.665 | 0.536 | 0.713 | 0.481 | 0.873 | 0.915 | 0.677 | – | – | – | – | – |
| COR-L23 | 1.17 | 1.06 | 0.959 | 1.06 | 0.432 | 0.421 | 0.414 | 0.454 | 0.613 | 0.685 | 0.76 | 0.56 | – | – | – | 0.706 | 0.548 | 0.568 | 0.541 | – |
| COR-L 105 | 0.808 | 0.825 | 0.84 | 0.492 | 0.642 | 0.608 | 0.72 | 0.47 | 0.882 | 0.635 | 0.669 | 0.471 | – | – | – | 0.51 | 0.381 | 0.42 | 0.389 | – |
| LCLC-103H | – | – | – | – | 0.744 | 0.792 | 0.723 | 0.69 | 0.958 | 0.933 | 1.02 | 0.975 | 0.74 | 0.827 | 0.771 | 0.747 | 0.685 | 0.672 | 0.656 | 0.854 |
| NCI-H358 | – | – | – | – | 0.211 | 0.213 | 0.209 | 0.218 | 0.28 | 0.331 | 0.372 | 0.439 | 0.547 | 0.556 | 0.359 | 0.132 | 0.128 | 0.121 | 0.109 | 0.638 |
| NCI-H520 | 1.33 | 0.988 | 1.05 | 0.964 | 0.465 | 0.47 | 0.533 | 0.409 | 0.199 | 0.236 | 0.223 | 0.214 | – | – | – | 0.703 | 0.633 | 0.6 | 0.417 | – |
| NCI-H522 | – | – | – | – | 0.572 | 0.671 | 0.698 | 0.658 | 1.15 | 1.16 | 1.26 | 1.01 | 0.714 | 0.698 | 0.897 | 0.723 | 0.711 | 0.689 | 0.723 | 0.794 |
| NCI-H650 | – | – | – | – | 0.327 | 0.295 | 0.29 | 0.419 | 0.838 | 0.713 | 0.744 | 0.898 | 0.992 | 1.04 | 0.981 | 0.907 | 0.918 | 0.961 | 0.975 | 0.908 |
| NCI-H661 | – | – | – | – | 0.57 | 0.537 | 0.521 | 0.426 | 0.947 | 0.964 | 0.963 | 0.758 | – | – | – | 0.616 | 0.554 | 0.565 | 0.439 | – |
| NCI-H1650 | 1.46 | 1.06 | 1.18 | 0.754 | 0.457 | 0.378 | 0.378 | 0.511 | 0.193 | 0.209 | 0.174 | 0.154 | – | – | – | 0.532 | 0.584 | 0.6 | 0.312 | – |
| NCI-H1703 | 0.985 | 1.06 | 0.922 | 0.43 | – | – | – | – | – | – | – | – | 0.132 | 0.124 | 0.133 | – | – | – | – | 0.12 |
| NCI-H2009 | 1.22 | 1.2 | 1.21 | 1.08 | 0.365 | 0.468 | 0.345 | 0.36 | 1.01 | 1.08 | 1.06 | 0.671 | – | – | – | 0.276 | 0.344 | 0.27 | 0.166 | – |
| NCI-H2023 | 1 | 1.01 | 1.03 | 0.92 | 0.233 | 0.248 | 0.216 | 0.25 | 0.802 | 0.852 | 0.704 | 0.579 | – | – | – | 0.647 | 0.474 | 0.537 | 0.434 | – |
| NCI-H2228 | 0.84 | – | 1.03 | 0.732 | – | – | – | – | 0.104 | 0.185 | 0.167 | 0.109 | – | – | – | 0.54 | 0.599 | 0.494 | 0.355 | – |
| NCI-H2342 | – | – | – | – | 0.691 | 0.744 | 0.726 | 0.855 | 0.587 | 0.714 | 0.694 | 0.666 | 0.553 | 0.459 | 0.55 | 0.706 | 0.703 | 0.856 | 1.1 | 0.445 |
| SK-LU-1 | 0.714 | 0.929 | 0.779 | 0.739 | 0.646 | 0.644 | 0.637 | 0.548 | 0.199 | 0.189 | 0.212 | 0.187 | – | – | – | 0.43 | 0.504 | 0.498 | 0.344 | – |
| SK-MES-1 | 1.21 | 0.97 | 1.1 | 1.3 | 0.412 | 0.482 | 0.428 | 0.314 | 0.812 | 0.839 | 0.765 | 0.284 | – | – | – | 0.55 | 0.547 | 0.547 | 0.39 | – |
| SW 1573 | 0.996 | 0.998 | 0.979 | 0.919 | 0.606 | 0.48 | 0.557 | 0.451 | 0.267 | 0.956 | 0.246 | 0.183 | – | – | – | 0.571 | 0.614 | 0.652 | 0.504 | – |
| UMC-11 | 0.256 | 0.316 | 0.333 | 0.33 | 0.661 | 0.555 | 0.596 | 0.535 | 0.967 | 1.16 | 1.05 | 0.806 | – | – | – | 0.724 | 0.723 | 0.686 | 0.678 | – |
